The results in this text go back to PubChem BioAssay (NCI).

Among the test systems are CCRF-CEM leukemia; HCC-2998 colon; HL-60(TB) leukemia; HOP-92 NSCLC; NCI-H460 lung; NCI/ADR-RES ovarian; SF-268 CNS; SF-295 CNS; T-47D breast; MALME-3M melanoma.
Holding throughout (assay): inhibition of tumour cell growth, NCI panel, 48 h

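Where inhibition never reached the appropriate level, the endpoint shown equals the highest concentration tested. Otherwise, values were interpolated linearly from a five-concentration, 48-hour dose response in 96-well plates. Definition used: TGI = concentration required for complete inhibition of growth.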 Where only a bound is given, the exact number is not on record here.

On to `COc1cc(C2c3cc4c(cc3OC(Nc3ccc(C(=O)O)cc3)C2C)OCO4)cc(OC)c1OC` (stereo not given), for which the TGI in the test on CCRF-CEM leukemia is > 41.8 µM; with HCC-2998 colon it was 0.853 µM; in the test with HL-60(TB) leukemia, 0.541 µM; with HOP-92 NSCLC it was > 74.6 µM; in the test with NCI-H460 lung, > 100 µM; with NCI/ADR-RES ovarian it was 4.9 µM. In addition, the TGI was > 39.1 µM in the test with SF-268 CNS, > 100 µM in the test with SF-295 CNS and > 100 µM in the test on T-47D breast.
For the molecule `OC12COc3ccccc3C1Oc1ccccc1C2` (stereo not given), the TGI in the test on CCRF-CEM leukemia, in the test with HCC-2998 colon, in the test with HOP-92 NSCLC, in the test with MALME-3M melanoma, with NCI/ADR-RES ovarian and with SF-268 CNS was > 100 µM throughout. In addition, the TGI with SF-295 CNS and with T-47D breast was > 100 µM in each case.
For the molecule `CC1(C)C(=O)C(C)(C)C12SSC1(S2)C(C)(C)C(=O)C1(C)C`, the TGI in the test on HCC-2998 colon was > 100 µM; with HL-60(TB) leukemia, 21.1 µM; with HOP-92 NSCLC, > 100 µM; in the test with MALME-3M melanoma it was > 100 µM; in the test on NCI-H460 lung, > 100 µM; with NCI/ADR-RES ovarian it was > 100 µM. Moreover, the TGI with SF-268 CNS, in the test with SF-295 CNS and in the test on T-47D breast was > 100 µM each time.
As for `O=C1/C(=C\c2cccc(Oc3ccccc3)c2)S(=O)(=O)C(c2ccccc2)N1c1ccc(Cl)cc1` (stereo not given), the TGI in the test on CCRF-CEM leukemia is 79.1 µM; in the test on HCC-2998 colon, > 100 µM; with HL-60(TB) leukemia, 32.7 µM; in the test on HOP-92 NSCLC, 30.8 µM; in the test on MALME-3M melanoma, 33.6 µM; in the test on NCI-H460 lung, > 100 µM. Further, the TGI in the test with NCI/ADR-RES ovarian worked out at 54.1 µM; in the test with SF-295 CNS it was 41.2 µM; in the test on T-47D breast it was 29.9 µM.
As for `N#CCCN(CCC#N)c1ccc(C(N=Nc2ccccc2)=Nc2ccccc2)cc1`, the TGI in the test on CCRF-CEM leukemia, with HCC-2998 colon, in the test on HOP-92 NSCLC, in the test with NCI-H460 lung, with NCI/ADR-RES ovarian and in the test on SF-268 CNS was > 100 µM each time. Moreover, the TGI in the test on SF-295 CNS and in the test with T-47D breast was > 100 µM throughout.
Take `CC1(C2(C)OC(=O)c3ccccc32)OC(=O)c2ccccc21` (stereo not given): the TGI in the test on HCC-2998 colon, in the test with HL-60(TB) leukemia, in the test with HOP-92 NSCLC, in the test on NCI-H460 lung, with NCI/ADR-RES ovarian and in the test on SF-268 CNS was > 100 µM in each case. In addition, the TGI in the test on SF-295 CNS and with T-47D breast was > 100 µM throughout.
As for `O=C/C(=C(/Br)I)c1ccccc1`, the TGI came out at 0.798 µM in the test on CCRF-CEM leukemia; 1.13 µM in the test with HL-60(TB) leukemia; 4.64 µM with HOP-92 NSCLC; 5.87 µM in the test on MALME-3M melanoma; 26.4 µM in the test with NCI-H460 lung; 15.2 µM with NCI/ADR-RES ovarian. Moreover, the TGI is 7.97 µM in the test with SF-268 CNS, 13.9 µM in the test on SF-295 CNS and 3.85 µM with T-47D breast.
For the molecule `CC1=C2c3c(C)ccc4ccc(C)c(c34)C2(O)C(C)C1=O` (stereo not given), the TGI was > 100 µM in the test on HCC-2998 colon; 91.6 µM in the test with HL-60(TB) leukemia; > 100 µM with HOP-92 NSCLC; > 100 µM in the test on NCI-H460 lung; 76 µM in the test on NCI/ADR-RES ovarian; > 100 µM with SF-268 CNS. Further, in the test with T-47D breast, the TGI was > 100 µM.
For `CCCc1c(OC)c(=O)c2c(OC)cc(OC)c3c4c(OC)cc(OC)c5c(=O)c(OC)c(CCC)c(c1c23)c54`, the TGI came to 38.7 µM with HCC-2998 colon; 10.4 µM in the test on HL-60(TB) leukemia; 23.4 µM with HOP-92 NSCLC; 34.5 µM with NCI-H460 lung; 47.4 µM with NCI/ADR-RES ovarian; 41.5 µM in the test on SF-268 CNS. Besides, the values for the TGI in the test on SF-295 CNS and with T-47D breast were 33.1 µM and 20.6 µM, respectively.
Turning to `O=c1oc2ccccc2c(O)c1C(c1ccco1)c1c(O)c2ccccc2oc1=O`, the TGI in the test on CCRF-CEM leukemia is 73.8 µM; in the test with HCC-2998 colon it was 55.1 µM; with HL-60(TB) leukemia, > 100 µM; in the test with HOP-92 NSCLC, > 100 µM; with MALME-3M melanoma, 41.7 µM; in the test with NCI-H460 lung, > 100 µM. The TGI is > 100 µM with NCI/ADR-RES ovarian, 79.8 µM in the test on SF-268 CNS and > 100 µM in the test with T-47D breast.
With `Cc1cccc2c1Oc1cc(Cl)ccc1C2NC(=O)CCN1CCN(CCO)CC1` (stereo not given), the TGI worked out at 37.9 µM with CCRF-CEM leukemia; 43.7 µM in the test on HCC-2998 colon; 39 µM in the test with HL-60(TB) leukemia; 22.8 µM with HOP-92 NSCLC; 34.2 µM in the test on NCI-H460 lung; 30.9 µM in the test on NCI/ADR-RES ovarian. For the same molecule, the TGI is > 100 µM with SF-268 CNS, 33 µM in the test with SF-295 CNS and 34.2 µM in the test with T-47D breast.
As for `Cc1cn(C2CCC(/C=N\O)O2)c(=O)[nH]c1=O` (stereo not given), the TGI in the test with CCRF-CEM leukemia, in the test with HCC-2998 colon, in the test on HOP-92 NSCLC, in the test with NCI-H460 lung, in the test with NCI/ADR-RES ovarian and in the test with SF-295 CNS was > 100 µM throughout. In addition, in the test on T-47D breast, the TGI is > 100 µM.
`CC1(c2nc3cc(Cl)c(Cl)cc3[nH]2)CCC(CO)C(C)(C)O1` (stereo not given): the TGI in the test on CCRF-CEM leukemia is > 100 µM; with HCC-2998 colon it was > 100 µM; with HL-60(TB) leukemia it was 36.7 µM; in the test on HOP-92 NSCLC it was > 100 µM; in the test on MALME-3M melanoma, 84 µM; in the test with NCI/ADR-RES ovarian it was 44.5 µM. Moreover, the TGI in the test on SF-268 CNS is > 100 µM; in the test on SF-295 CNS it was 95.3 µM; in the test with T-47D breast, > 100 µM.
As for `CC1CC[C@@]2(OC1)OC1C[C@H]3[C@@H]4C/C(=N\N(C)C)[C@@]5(O)CC(O)CC[C@]5(C)[C@H]4CC[C@]3(C)C1[C@@H]2C` (stereo not given in full), the TGI with CCRF-CEM leukemia is > 100 µM; with HCC-2998 colon, > 100 µM; with HL-60(TB) leukemia, 54.3 µM; in the test on HOP-92 NSCLC, > 100 µM; with MALME-3M melanoma, 83.7 µM; with NCI-H460 lung, > 100 µM. The TGI in the test with NCI/ADR-RES ovarian, with SF-268 CNS and with T-47D breast was > 100 µM throughout.
Turning to `COc1ccc(N=C(C)c2ccncc2)cc1`, the TGI in the test with CCRF-CEM leukemia, in the test with HCC-2998 colon, in the test with HOP-92 NSCLC, in the test on MALME-3M melanoma, in the test with NCI-H460 lung and in the test with NCI/ADR-RES ovarian was > 100 µM each time. In addition, the TGI in the test with SF-268 CNS, with SF-295 CNS and in the test on T-47D breast was > 100 µM each time.
On to `Cn1c(=O)cc(NCc2ccc(Cl)cc2)[nH]c1=O`, for which the TGI in the test with HCC-2998 colon was > 100 µM; in the test with HOP-92 NSCLC, 45 µM; in the test on MALME-3M melanoma, > 100 µM; in the test on NCI-H460 lung it was > 100 µM; in the test with NCI/ADR-RES ovarian it was > 100 µM; in the test on SF-268 CNS it was 69.1 µM. In addition, the TGI in the test with SF-295 CNS and in the test on T-47D breast was > 100 µM each time.
